Results as given in patent US5484770A, “Peptide compounds which inhibit the proliferation of epidermal or epithelial stem cells” (Hafslund Nycomed Bioreg AS, priority 1988, dated 1996).
Where a SMILES comes first, the peptide text is derived from it. [ ]: non-standard residue; d: D form. pGlu = O=C1CC[C@@H](C(=O)O)N1

Test system: haemopoiesis
Test: inhibitory effect on haemopoiesis in vivo
Conditions: time at which the inhibitory effect occurs
Excerpt: By contrast it is also possible to prepare peptides having a metabolically labile blocking group so that slow release of the unblocked peptide can be achieved in vivo. Thus according to a further aspect of the invention we provide compounds of formula [drawing 10] wherein R^a, R^b, R^c, R^e, R^f and n are as defined for formula I, R^12 is a metabolically labile group, for example a 2-pyridylthio group, and all amino acids have the chiral form stated for formula (I).

Question: Which “inhibitory effect on haemopoiesis, occurring after” value does the source give for NCCCC[C@H](NC(=O)[C@H](CS)NC(=O)[C@H](CC(=O)O)NC(=O)[C@H](CCC(=O)O)NC(=O)[C@@H]1CCC(=O)N1)C(=O)O [Example 1, L-PYROGLUTAMYL-L-GLUTAMYL-L-ASPARTYL-L-CYSTEINYL-L-LYSINE] ([pGlu]EDCK-OH) here?
Answer: 1 days
